Reference: patent publication US20220267329A1, “Dihydro-Spiro[Indoline-3:1'-Isoquinolin]-2-Ones and Their Analogues and Derivatives and Methods of Treating Cancer and Other Diseases” (The University of Buea, priority 2019, published 2022)

What was measured:
[1] = test system: ovarian cancer cell lines; assay: NCI-60 screen, ovarian cell lines; type: cell-based, human; conditions: NCI-60 preliminary screening; for inhibition at 10 µM: Homo sapiens, read-out: Percent (%) Inhibition of Cancer Cell Line, Ovarian
Description: (§1) Screening for Anticancer Activity—The NCI-60 panel: Representative compounds of the invention were subjected to anticancer testing in the National Cancer Institute (NCI) 60 screen. In this screen compounds are tested on a panel of sixty human cancer cell lines chosen from the following cancers: leukemia, nonsmall cell lung cancer (NSCLC), colon, melanoma, central nervous system (CNS), ovarian, renal, prostate and breast. The assay method is found on the NCI website (dtp.cancer.gov/discovery_development/nci-60/methodology.htm). In the NCI-60 assay, test compounds undergo preliminary screening at 10 μM concentration. The data is reported as percent growth relative to “no drug” control; therefore values between 0 and 100% denote growth inhibition.

[2] = test system: EMT6 breast cancer cell line; assay: Antiproliferative screening on EMT6 cancer cells; type: cell-based; conditions: for activity at 100 µM: Mus musculus, EMT6, no ligand = 100, read-out: EMT6 cell proliferation (%)
Description: Representative compounds were screened tested for antiproliferative activity on the EMT6 breast cancer cell line. Screening was carried out according to published procedures (Zeng et al., 2014). In this screen, compounds were tested at 100 μM concentration.

[3] = test system: nonsmall cell lung cancer (NSCLC) cell lines; assay: NCI-60 screen, NSCLC cell lines; type: cell-based, human; conditions: NCI-60 preliminary screening; for inhibition at 10 µM: Homo sapiens, read-out: Percent (%) Inhibition of Cancer Cell Line, NSCLC
Description: as §1

[4] = test system: renal cancer cell lines; assay: NCI-60 screen, renal cell lines; type: cell-based, human; conditions: NCI-60 preliminary screening; for inhibition at 10 µM: Homo sapiens, read-out: Percent (%) Inhibition of Cancer Cell Line, Renal Cell
Description: as §1

[5] = biological target: sphingosine-1-phosphate receptor 1 (S1PR1) (Homo sapiens, UniProt P21453); assay: Radioligand binding to sphingosine-1-phosphate receptor 1; conditions: test compound 100 nM, 0.2 nM radioligand; read-out: % INHIBITION of binding to the SIP1 Receptor
sphingosine-1-phosphate receptor 1 (S1PR1), sequence (P21453 whole entry, species assumed): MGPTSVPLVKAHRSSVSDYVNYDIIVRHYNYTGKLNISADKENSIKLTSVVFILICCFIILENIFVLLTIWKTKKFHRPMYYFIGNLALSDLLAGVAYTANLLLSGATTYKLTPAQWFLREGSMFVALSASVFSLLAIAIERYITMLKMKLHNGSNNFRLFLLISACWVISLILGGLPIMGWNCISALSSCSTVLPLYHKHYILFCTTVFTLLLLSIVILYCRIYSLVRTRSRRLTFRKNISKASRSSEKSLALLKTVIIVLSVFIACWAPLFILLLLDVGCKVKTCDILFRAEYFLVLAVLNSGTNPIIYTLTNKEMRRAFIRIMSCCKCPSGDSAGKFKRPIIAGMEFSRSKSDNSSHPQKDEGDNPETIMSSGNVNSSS
Description: The binding of a representative group of compounds of this invention to sphingosine-1-phosphate receptor 1 (S1PR1) was determined by a published procedure (Rosenberg et al., 2016). In this assay, the test compound at 100 nM concentration was incubated with 0.2 nM radioligand. Active compounds or “hits” are defined as compounds that inhibit radioligand binding by 50% or more. […] This finding is significant because it establishes the 3′,4′-dihydro-2′H-[…]-2-one hybrid scaffold as an entirely new class of ligands for the sphingosine-1-phosphate receptors.

[6] = test system: breast cancer cell lines; assay: NCI-60 screen, breast cell lines; type: cell-based, human; conditions: NCI-60 preliminary screening; for inhibition at 10 µM: Homo sapiens, read-out: Percent (%) Inhibition of Cancer Cell Line, Breast
Description: as §1

[7] = test system: prostate cancer cell lines; assay: NCI-60 screen, prostate cell lines; type: cell-based, human; conditions: NCI-60 preliminary screening; for inhibition at 10 µM: Homo sapiens, Prostate cell, read-out: Percent (%) Inhibition of Cancer Cell Line, Prostate
Description: as §1

[8] = test system: central nervous system (CNS) cancer cell lines; assay: NCI-60 screen, CNS cell lines; type: cell-based; conditions: Homo sapiens, NCI-60 preliminary screening, read-out: Percent (%) Inhibition of Cancer Cell Line, CNS
Description: as §1

[9] = test system: panel of sixty human cancer cell lines; assay: NCI-60 screen, whole panel; type: cell-based; conditions: 10 μM
Description: as §1

[10] = test system: leukemia cell lines; assay: NCI-60 screen, leukemia cell lines; type: cell-based; conditions: Homo sapiens, NCI-60 preliminary screening, read-out: Percent (%) Inhibition of Cancer Cell Line, Leukemia
Description: as §1

[11] = test system: melanoma cell lines; assay: NCI-60 screen, melanoma cell lines; type: cell-based; conditions: Homo sapiens, NCI-60 preliminary screening, read-out: Percent (%) Inhibition of Cancer Cell Line, Melanoma
Description: as §1

inhibition at 0.1 µM [5] [%]	Structure (SMILES)	activity at 100 µM [2] [%]	inhibition at 10 µM [4] [%]	inhibition at 10 µM [8] [%]	antiproliferative activity in the NCI-60 panel [9]	inhibition at 10 µM [6] [%]	inhibition at 10 µM [10] [%]	also measured
36.2	COc1ccc2c(c1)CCNC21C(=O)Nc2ccccc21 (stereo not drawn) [Compound 4a, 6′-Methoxy-3′,4′-dihydro-2′H-spiro[indoline-3,1′-isoquinolin]-2-one]	–	20	20	–	–	–	–
38.1	COc1ccc2c(c1)CCNC21C(=O)N(Cc2ccc(C)cc2)c2ccccc21 (stereo not drawn) [Compound 4e, 6′-Methoxy-1-(4-methylbenzyl)-3′,4′-dihydro-2′H-spiro[indoline-3,1′-isoquinolin]-2-one]	–	30 to 46	–	most potent analogues	25 to 30	–	inhibition at 10 µM [3]: 25 to 28%
≥ 50	COc1cc2c(cc1OC)C1(NCC2)C(=O)Nc2ccc(Cl)cc21 (stereo not drawn) [Compound 5b, 5-Chloro-6′,7′-dimethoxy-3′,4′-dihydro-2′H-spiro[indoline-3,1′-isoquinolin]-2-one]	–	22	32	–	–	–	–
37.6	COc1cc2c(cc1OC)C1(NCC2)C(=O)Nc2c(Br)cc(Br)cc21 (stereo not drawn) [Compound 5c, 5,7-dibromo-6′,7′-dimethoxy-3′,4′-dihydro-2′H-spiro[indoline-3,1′-isoquinolin]-2-one]	–	27 to 35	25	–	–	24	–
32.4	COc1cc2c(cc1OC)C1(NCC2)C(=O)N(Cc2ccc(C)cc2)c2ccccc21 (stereo not drawn) [Compound 5e, 6′,7′-Dimethoxy-1-(4-methylbenzyl)-3′,4′-dihydro-2′H-spiro[indoline-3,1′-isoquinolin]-2-one]	–	25	–	most potent analogues	22 to 24	24 to 48	inhibition at 10 µM [7]: 42%

Further lines, the compound ahead of its results:

Structure (SMILES)	inhibition at 0.1 µM [5] [%]	activity at 100 µM [2] [%]	inhibition at 10 µM [4] [%]	inhibition at 10 µM [8] [%]	antiproliferative activity in the NCI-60 panel [9]	inhibition at 10 µM [6] [%]	inhibition at 10 µM [10] [%]	also measured
O=C1Nc2ccccc2C12NCCc1cccc(O)c12 (stereo not drawn) [Compound 1a, 8′-Hydroxy-3′,4′-dihydro-2′H-spiro[indoline-3,1′-isoquinolin]-2-one]	–	104	14	–	–	–	–	inhibition at 10 µM [1]: 10%; inhibition at 10 µM [3]: 15%
O=C1N(Cc2ccc(F)cc2)c2ccccc2C12NCCc1cccc(O)c12 (stereo not drawn) [Compound 1d, 1-(4-Fluorobenzyl)-8′-hydroxy-3′,4′-dihydro-2H-spiro[indoline-3,1′-isoquinolin]-2-one]	≥ 50	120	–	–	–	–	–	melting point: 119 to 121 °C
O=C1N(Cc2ccc(Cl)cc2)c2ccccc2C12NCCc1cccc(O)c12 (stereo not drawn) [Compound 1e, 1-(4-Chlorobenzyl)-8′-hydroxy-3′,4°-dihydro-2′H-spiro[indoline-3,1′-isoquinolin]-2-one]	–	–	–	–	–	–	–	Percent (%) Inhibition of Cancer Cell Line, Ovarian ([1]; 10 μM): 14%; EMT6 cell proliferation (%) ([2]; 100 μM, no ligand = 100): 77.91%; Percent (%) Inhibition of Cancer Cell Line, NSCLC ([3]; 10 μM): 30%; Percent (%) Inhibition of Cancer Cell Line, Renal Cell ([4]; 10 μM): 35%; Percent (%) Inhibition of Cancer Cell Line, Breast ([6]; 10 μM): 12%; Percent (%) Inhibition of Cancer Cell Line, Prostate ([7]; 10 μM): 14%
O=C1N(Cc2ccc(Cl)c(Cl)c2)c2ccccc2C12NCCc1cccc(O)c12 (stereo not drawn) [Compound 1g, 1-(3,4-Dichlorobenzyl)-8′-hydroxy-3′,4′-dihydro-2′H-spiro[indoline-3,1′-isoquinolin]-2-one]	–	91.1	–	–	–	–	–	melting point: 109 to 113 °C
COc1cc2c(cc1OC)C1(NCC2)C(=O)N(Cc2ccc(Br)cc2)c2ccc(Cl)cc21 (stereo not drawn) [Compound 5f, 1-(4-Bromobenzyl)-5-chloro-6′,7′-dimethoxy-3′,4′-dihydro-2′H-spiro[indoline-3,1′-isoquinolin]-2-one]	–	–	–	–	most potent analogues	27 to 36	38 to 55	inhibition at 10 µM [1]: 39%; inhibition at 10 µM [7]: 52%; inhibition at 10 µM [11]: 44%
